# Source: ChEMBL document CHEMBL1125091, “Antiulcer agents. 4-substituted 2-guanidinothiazoles: reversible, competitive, and selective inhibitors of gastric H+,K(+)-ATPase” (J Med Chem, 1990)
# Assays:
# [1] = test system: Potassium-transporting ATPase (Canis familiaris); assay: Percent inhibition of gastric proton-pump enzyme H+/K+ ATPase was determined at 50 uM; details: Canis lupus familiaris, Stomach
# [2] = target: Potassium-transporting ATPase (Canis familiaris); assay: Inhibitory activity against dog gastric proton-pump enzyme H+/K+ ATPase
Structure (SMILES),inhibition [1],IC50 [2]
N=C(N)Nc1nc(-c2ccc(Cl)cc2)cs1,48%,–
N=C(N)Nc1cc(Cl)nc(-c2ccccc2)n1,89%,–
Cc1sc(N=C(N)N)nc1-c1c[nH]c2ccccc12,92%,7.6 µM
N=C(N)Nc1nc(-c2ccc[nH]2)cs1,68%,30 µM
COc1ccc(-c2csc(NC(=N)NCc3ccccc3)n2)cc1,24%,–
N=C(NCc1ccccc1)Nc1nc(-c2ccc(F)cc2)cs1,35%,–
N=C(N)Nc1nc(-c2cc3ccccc3[nH]2)cs1,72%,14 µM
Cc1cccc(-c2csc(N=C(N)N)n2)c1,60%,32 µM
Cc1sc(NC(=N)NCc2ccccc2)nc1-c1ccn(S(=O)(=O)c2ccccc2)c1C,35%,–
NC(N)=Nc1cc(Cl)nc(-c2ccccc2)n1,–,6 µM
COc1ccc(-c2csc(NC(=N)NCc3ccccc3)n2)cc1OC,25%,–
N=C(N)Nc1nc(-c2c[nH]c(CN3CCCCC3)c2)cs1,55%,–
COC(=O)c1ccc2[nH]cc(-c3csc(NC(=N)NCc4ccccc4)n3)c2c1,94%,3.1 µM
N/C(=N\Cc1ccccc1)Nc1nc(-c2ccc(O)cc2)cs1,49%,–
N=C(N)Nc1nc(-c2c[nH]c3ccccc23)cs1,91%,9 µM
N=C(NCc1ccccc1)Nc1nc(-c2c[nH]c3ccccc23)cs1,102%,1.5 µM
N=C(NCc1ccccc1)Nc1nc(-c2ccc(-c3ccccc3)cc2)cs1,5%,–
Cc1c(-c2csc(NC(=N)NCc3ccccc3)n2)ccn1S(=O)(=O)c1ccccc1,54%,–
N=C(NCc1ccccc1)Nc1nc(-c2ccccc2)cs1,-1%,–
COc1ccc2[nH]cc(-c3csc(N=C(N)N)n3)c2c1,70%,19 µM
Cc1cc(-c2csc(N=C(N)N)n2)cn1C,74%,24 µM
COc1ccccc1-c1csc(NC(=N)NCc2ccccc2)n1,99%,2.3 µM
N=C(N)Nc1nc(-c2c[nH]c(C(=O)N3CCCCC3)c2)cs1,69%,17 µM

Structure (SMILES),inhibition [1],IC50 [2]
CCCCCC/N=C(\NC)Nc1nc(-c2c[nH]c(C)c2)cs1,68%,–
COC(=O)c1ccc2[nH]cc(-c3csc(N=C(N)N)n3)c2c1,86%,6.7 µM
N=C(N)Nc1nc(-c2ccccc2O)cs1,26%,–
Cc1sc(NC(=N)NCc2ccccc2)nc1-c1ccc(O)c(O)c1,103%,1.3 µM
Cc1cc(-c2csc(NC3=NCCN3)n2)c[nH]1,25%,–
N=C(NCc1ccccc1)Nc1nc(-c2ccc(Cl)cc2)cs1,38%,–
Cc1[nH]ccc1-c1csc(N=C(N)N)n1,96%,7 µM
Cc1cccc2[nH]cc(-c3csc(NC(=N)NCc4ccccc4)n3)c12,103%,–
Cc1[nH]c2ccc(Cl)cc2c1-c1nc(N=C(N)N)sc1C,103%,0.6 µM
Cc1ccccc1-c1csc(NC(=N)NCc2ccccc2)n1,111%,10 µM
N/C(=N\Cc1ccccc1)Nc1nc(-c2cccc(O)c2)cs1,8%,–
Cn1cc(-c2csc(N=C(N)N)n2)cc1C=O,44%,–
N=C(NCc1ccccc1)Nc1nc(-c2cc3cc(F)ccc3[nH]2)cs1,49%,–
N=C(N)Nc1nc(-c2ccccc2)co1,0%,–
CN(C)Cc1cccc(-c2csc(N=C(N)N)n2)c1,56%,37 µM
N=C(NCc1ccccc1)Nc1nc(-c2ccccc2Cl)cs1,99%,6 µM
Cc1sc(N=C(N)N)nc1-c1c[nH]c2ccc(Cl)cc12,99%,0.59 µM
Cc1cc(-c2csc(NC(=N)NCc3ccc(Cl)cc3)n2)c[nH]1,95%,7 µM
NC(N)=Nc1nc(-c2ccccc2)cs1,–,40 µM
CCOC(=O)c1cc(-c2csc(N=C(N)N)n2)[nH]c1C,91%,7 µM
Cc1[nH]ccc1-c1nc(NC(=N)NCc2ccccc2)sc1C,80%,8.8 µM
CCCCC/N=C(\N)Nc1nc(-c2cccc(OC)c2)cs1,25%,–
N=C(NCc1ccccc1)Nc1nc(-c2cccc(Cl)c2)cs1,80%,–

Structure (SMILES),inhibition [1],IC50 [2]
Cc1cc(-c2nc(NC(=N)NCc3ccccc3)sc2C)c[nH]1,83%,7.9 µM
N/C(=N\Cc1ccccc1)Nc1nc(-c2ccc(N)cc2)cs1,77%,5.2 µM
Cc1sc(N=C(N)N)nc1-c1c[nH]c(C=O)c1,77%,28 µM
Cc1ccc(-c2csc(N=C(N)N)n2)cc1,61%,–
Cc1ccc(-c2csc(N=C(N)NCc3ccccc3)n2)[nH]1,–,7 µM
Cc1[nH]c(-c2csc(N=C(N)N)n2)cc1C(=O)N(C)C,33%,–
CN(C)c1cccc(-c2csc(NC(=N)N)n2)c1,52%,–
Cc1cccc(-c2csc(NC(=N)NCc3ccccc3)n2)c1,53%,–
Cc1ccc2[nH]cc(-c3csc(N=C(N)N)n3)c2c1,76%,1.8 µM
Cc1ccc(-c2csc(NC(=N)NCc3ccccc3)n2)n1S(=O)(=O)c1ccccc1,57%,26 µM
N=C(NCc1ccccc1)Nc1nc(-c2c[nH]c3ccc(F)cc23)cs1,96%,2.7 µM
Cc1cc(-c2csc(NC(=N)N3CCCCC3)n2)c[nH]1,34%,–
N=C(N)Nc1nc(-c2cccc(N)c2)cs1,45%,–
Cc1ccc(-c2csc(NC(=N)NCc3ccccc3)n2)cc1,16%,–
N=C(N)Nc1nc(-c2cc[nH]c2)cs1,68%,–
Cc1cc(-c2csc(C)n2)c[nH]1,0%,–
N=C(NCc1ccccc1)Nc1nc(-c2ccc[nH]2)cs1,81%,9 µM
Cc1cccc2[nH]cc(-c3csc(N=C(N)NCc4ccccc4)n3)c12,–,3.3 µM
N=C(N)Nc1nc(-c2ccc(O)cc2)cs1,75%,15 µM
CC(=O)Nc1ccc2[nH]cc(-c3csc(NC(=N)NCc4ccccc4)n3)c2c1,66%,23.8 µM
N#Cc1ccc2[nH]cc(-c3csc(NC(=N)N)n3)c2c1,80%,–
N=C(N)Nc1nc(-c2cccc(Cl)c2)cs1,48%,53 µM
N=C(N)Nc1nc(-c2ccc(F)cc2)cs1,61%,33 µM

Structure (SMILES),inhibition [1],IC50 [2]
N=C(NCc1ccccc1)Nc1nc(-c2c[nH]c3ccc(Cl)cc23)cs1,92%,0.7 µM
Cc1c(-c2csc(N=C(N)N)n2)ccn1S(=O)(=O)c1ccccc1,101%,2 µM
Cc1cc(-c2csc(NC3=NCCN3C)n2)c[nH]1,13%,–
N=C(N)Nc1nc(-c2c[nH]c3ccc(F)cc23)cs1,90%,7.4 µM
N=C(NCc1ccccc1)Nc1nc(-c2cc3cc(Cl)ccc3[nH]2)cs1,97%,9.1 µM
N=C(N)Nc1nc(-c2ccccc2)cs1,52%,–
N=C(N)Nc1nc(-c2ccc(-c3ccccc3)cc2)cs1,25%,–
COc1ccc(-c2csc(N=C(N)N)n2)cc1OC,41%,–
CN(C)Cc1ccccc1-c1csc(N=C(N)N)n1,27%,–
Cc1ccc(-c2csc(NC(=N)NCc3ccccc3)n2)[nH]1,83%,–
N=C(N)Nc1nc(-c2c[nH]c(C=O)c2)cs1,44%,–
Cc1sc(N=C(N)NCc2ccccc2)nc1-c1c[nH]c2ccc(Cl)cc12,–,0.7 µM
N=C(N)Nc1ccc(-c2ccccc2)cc1,16%,–
Cc1cc(-c2csc(N)n2)c[nH]1,17%,–
N#Cc1ccc2[nH]cc(-c3csc(NC(=N)NCc4ccccc4)n3)c2c1,50%,–
Cc1cc(-c2csc(NC3=NCCCN3Cc3ccccc3)n2)c[nH]1,19%,–
Nc1nc(-c2c[nH]c(C=O)c2)cs1,9%,–
Cc1cc(-c2csc(NC(=N)NCc3ccccc3)n2)cn1S(=O)(=O)c1ccccc1,69%,–
Cc1nc(-c2c[nH]c(C=O)c2)cs1,5%,–
CCCCCCN(C)C(=N)Nc1nc(-c2c[nH]c(C)c2)cs1,54%,–
N=C(N)NCCc1c[nH]c2ccccc12,15%,–
Cc1sc(NC(=N)NCc2ccccc2)nc1-c1c[nH]c2ccccc12,34%,–
Cc1ccc(-c2csc(N=C(N)N)n2)n1C,20%,–
